Series [1] in a line: Cytotoxicity test, MTT/formazan assay. Type of series: cell-based, monkey. The conditions noted are these: monkey, LLC-MK2 monkey kidney epithelial cells; LLC-MK2 cells, 72 h, MTT/formazan. How it is done:
(§1) This was done on monkey kidney epithelial cells, LLC-MK2, (ATCC, USA) as described except for use of same culture medium and conditions for P falciparum above. The cells, 10,000 in 100 μL medium per well, were cultured for 24 h to become confluent and attached to the bottom of the well and the medium replaced with 100 μL of fresh medium. […] A negative control without test substance was included. The plates were incubated for 72 h at 37 °C in 5% CO2 and cell viability were determined using microscopy to observe dead cells which appeared dark and deformed. This was followed by the MTT/formazan assay as described above with slight modification. The CC50 values (50% cytotoxic concentration) for each compound was obtained using Microsoft excel 2007. The selectivity index (SI) was calculated using the formula:3 SI=CC50onLLC‐MK2cells/IC50onP.falciparum
(§2) For the parasite lactate dehydrogenase assay, the background OD of blank wells containing non parasitized red blood cells was subtracted from values of all test wells. OD values from control wells void of test compound represented the maximum pLDH activity. The OD values obtained were used to determine the IC50, and IC90 values using the software IC Method IC Estimator V1.2 [18], an online calculator of IC values. Each assay was done twice in duplicates and the 4 IC50 or CC50 values obtained were pooled together and expressed as mean IC ± S.D.

The subject of series [2] is LLC-MK2 monkey kidney epithelial cells. As to the kind of experiment: Cytotoxicity test, MTT/formazan assay. Type of series: cell-based. The conditions noted are these: for SI on 3D7: CC50 on LLC-MK2 cells/IC50 on P. falciparum 3D7; for SI on Dd2: CC50 on LLC-MK2 cells/IC50 on P. falciparum Dd2; for Mean SI: mean of the Selectivity Indices of the 3D7 and Dd2 parasite strains. How it is done:
as §1, §2

The subject of series [3] is P. falciparum Dd2. As to the kind of experiment: Primary screen: in vitro parasite growth inhibition at a single concentration, fluorescence microscopy with acridine orange. Format: cell-based, Plasmodium falciparum. The settings on record: Plasmodium falciparum; 40 μg/mL, 48 h, Dd2 chloroquine-resistant strain. An excerpt:
(§3) Two Plasmodium falciparum parasite strains were obtained from MR4 (Manassas, Virginia, USA) and stored in liquid nitrogen. The 3D7 (MRA-102) strain is chloroquine- sensitive while Dd2 is a multidrug resistant clone of the W2 strain with resistance to chloroquine, quinine, mefloquine, sulfadoxine and pyrimethamine. Parasite stocks were thawed, grown and maintained in continuous culture by the candle jar technique with some modifications. The culture consisted of 4% hematocrit suspension of human O+ erythrocytes in RPMI-1640 medium (10.43 g/L supplemented with 0.01 mg/mL gentamycin, 25 mM Hepes buffer, 25 mM NaHCO3) and 5 g Albumax II. All culture reagents were obtained from Sigma-Aldrich Inc. (Germany) except for Albumax II (Gibco; Invitrogen, USA). Cultures were incubated at 37 °C in 5% CO2.
A primary screen for antiplasmodial activity at a single concentration was performed against Dd2 as described with some modifications, to identify active compounds. Stock solutions of compound (1 mg/mL) was initially dissolved in dimethylsulfoxide (DMSO), then gentamycin-free incomplete medium (without Albumax II) added giving 2% final DMSO; the solutions were sterilized and stored. The positive control solutions (artemether and quinine at 5 μg/mL) were prepared similarly. The compounds were tested at a final concentration of 40 μg/mL in duplicate in a 96 well microtitre plate (100 μL per well), followed by 100 μL of 1% parasitized blood. Positive and negative controls (no drug) were included. The plate was incubated under the same culture conditions as above for 48 h and antiplasmodial activity determined by fluorescence microscopy (Leitz Wetzlar, Germany) with acridine orange stain at × 40 magnification under oil immersion. The number of infected erythrocytes (Ei) was counted in 20 monolayer fields (approximately 1500 cells per field) and the percentage parasitaemia was calculated using the formula:1 %parasitaemia=∑Ei/30,000×100
The percentage inhibition per concentration was then obtained using the formula below:2 percentage%inhibition=%parasitaemia of control well‐%parasitaemia of test well/%parasitaemia of control well×100

The subject of series [4] is P. falciparum 3D7. As to the kind of experiment: Secondary screen: parasite growth inhibition by parasite lactate dehydrogenase (pLDH) assay, 3D7. Format: cell-based, Plasmodium falciparum. Further details: key to Antiplasmodial activity class on 3D7: active, IC50 < 5 μg/mL; moderately active: 5 μg/mL ≤ IC50 ≤ 10 μg/mL; weakly active: IC50 ≥ 10 μg/mL. The settings on record: for Antiplasmodial activity class on 3D7: 3D7 strain, class by IC50; for IC50 / IC90: Plasmodium falciparum, 3D7 chloroquine-sensitive strain, pLDH assay, mean ± S.D.; for IC50: read-out: IC50; for IC90: read-out: IC90.
Excerpt: as §3
(§4) After incubation the plate was frozen at − 20 °C for the parasite lactate dehydrogenase (pLDH) assay.
(§5) The reagent preparation and assay were done as described. The plates were subjected to 3 freeze-thaw cycles to haemolyze the red blood cells. One hundred microlitre (100 μL) of Malstat reagent was added to each required well of a fresh microtitre plate followed by 20 μL of culture. Then 25 μL of nitroblue tetrazolium/phenazine ethosulfate (NBT/PES) solution was added initiating the reaction. The plates were then incubated for an hour in the dark and optical density (OD) measured at 650 nm (Emax-Molecular Devices Corporation, California, USA).
as §2

The subject of series [5] is P. falciparum Dd2. As to the kind of experiment: Secondary screen: parasite growth inhibition by parasite lactate dehydrogenase (pLDH) assay, Dd2. Type of series: cell-based, Plasmodium falciparum. Further details: key to Antiplasmodial activity class on Dd2: active, IC50 < 5 μg/mL; moderately active: 5 μg/mL ≤ IC50 ≤ 10 μg/mL; weakly active: IC50 ≥ 10 μg/mL. The conditions noted are these: for IC50 / IC90: Plasmodium falciparum; for IC90: read-out: IC90.
Excerpt: as §3, §4, §5, §2

Setting [6] is: Dd2 chloroquine-resistant strain, pLDH assay, mean ± S.D., read-out: IC50.
Where [7] appears, read: Dd2 chloroquine-resistant strain, pLDH assay, mean ± S.D.

Values after ≈ are worked out from the molar mass of the structure shown. Read-outs that look alike come from different tables or passages of the source.

In turn, `O=C(c1ccc(F)cc1)C1CCN(Cc2ccc(Cl)c(Cl)c2)CC1` [Compound 2, [1-(3,4-dichlorobenzyl)piperidin-4-yl] [4-fluorophenyl] methanone] had a CC50 at 72 h in series [1] of 188 µg/mL (≈ 512 µM). In series [2], the “SI on 3D7” value is 43.51, the “SI on Dd2” value stood at 31.37 and the “Mean SI” value is given as 37.44 ± 8.58. The inhibition at 40 µg/mL in series [3] amounted to 82.7%. Further, in series [4], the “Antiplasmodial activity class on 3D7” value is “active”, the IC50 is 4.3 ± 3.75 µg/mL (≈ 11.7 µM) and the IC90 amounted to 17.61 ± 0.06 µg/mL (≈ 48.1 µM). Besides, the IC50 in series [5] (setting [6]) was 5.97 ± 0.02 µg/mL (≈ 16.3 µM). Besides, the IC90 in series [5] (setting [7]) is 24.9 ± 4.14 µg/mL (≈ 67.9 µM). In series [5] (Dd2 strain, class by IC50, read-out: Antiplasmodial activity class on Dd2), the IC50 was in the range of 5 to 10 µg/mL (≈ 13.7 to 27.3 µM).

Regarding `OC(c1ccc(F)cc1)C1CCN(Cc2ccc(Cl)c(Cl)c2)CC1` (stereo not drawn) [Compound 8, [1-(3,4-dichlorobenzyl)piperidin-4-yl] [4-fluorophenyl] methanol], in series [1], it took 93.8 µg/mL (≈ 255 µM) to reach half-maximal cytotoxicity (CC50 at 72 h). Moreover, in series [2], the “SI on 3D7” value turned out to be 21.14, the “SI on Dd2” value is 71.67 and the “Mean SI” value was 46.41 ± 35.7. Moreover, the inhibition at 40 µg/mL in series [3] turned out to be 81.7%. For the same compound, in series [4], the “Antiplasmodial activity class on 3D7” value was “active”, the IC50 turned out to be 4.43 ± 0.32 µg/mL (≈ 12 µM) and the IC90 was determined as 13.9 ± 1.25 µg/mL (≈ 37.7 µM). In series [5] (Dd2 strain, class by IC50), the “Antiplasmodial activity class on Dd2” value is recorded as “active”. The IC50 in series [5] (setting [6]) came out at 1.3 µg/mL (≈ 3.53 µM). In addition, in series [5] (setting [7]), the IC90 stood at 17.3 ± 3.27 µg/mL (≈ 47.1 µM).

Take `OC(c1ccc(F)cc1)C1CCN(Cc2ccc(F)cc2)CC1` (stereo not drawn) [Compound 7, [1-(4-fluorobenzyl)piperidin-4-yl] [4-fluorophenyl] methanol]: the CC50 at 72 h in series [1] came out at 375 µg/mL (≈ 1180 µM). Further, in series [2], the “SI on 3D7” value came to 93.67, the “SI on Dd2” value was 148.34 and the “Mean SI” value is 121.01 ± 38.7. This compound yielded an inhibition at 40 µg/mL in series [3] of 81.3%. Moreover, in series [4], the “Antiplasmodial activity class on 3D7” value was “active”, the IC50 is 4 ± 0.67 µg/mL (≈ 12.6 µM) and the IC90 was 14.6 ± 1.52 µg/mL (≈ 46 µM). In addition, the “Antiplasmodial activity class on Dd2” value in series [5] (Dd2 strain, class by IC50) is listed as “active”. The IC50 in series [5] (setting [6]) worked out at 2.52 µg/mL (≈ 7.94 µM). Besides, the concentration for an effect of 90% (IC90) in series [5] (setting [7]) turned out to be 17.7 ± 4.34 µg/mL (≈ 55.8 µM).

What is called CC50 is the concentration at which the toxic effect on the cells reaches its halfway point. As a reminder, the inhibition is the percentage by which the read-out fell short of the control. As a reminder, the IC90 is the point of the concentration-response curve where the effect stands at 90%.

For the origin of these results see paper PMC6033213, “Structurally simple synthetic 1, 4-disubstituted piperidines with high selectivity for resistant Plasmodium falciparum” (BMC Pharmacology & Toxicology, 2018).
